We go through 21 molecules from PMC9141920, “Identification and Characterization of Dipeptidyl Peptidase-IV Inhibitory Peptides from Oat Proteins” (Foods, 2022).

One test addresses T1, human DPP-IV (Homo sapiens, UniProt P27487).
T1 construct: purchased Sigma-Aldrich
As to the kind of experiment: DPP-IV inhibitory activity assay with Gly-Pro-AMC as the substrate. The note with it: for IC50: peptides, Gly-Pro-AMC substrate. Type of test: biochemical. Here is the method: The DPP-IV inhibitory activity assay of the sample was performed using Gly-Pro-AMC as the substrate, as previously described. Briefly, 50 µL Gly-Pro-AMC (0.2 mM) was added to a 40 µL sample (dissolved in 100 mM HEPES buffer) and incubated for 10 min at 37 °C. The reaction was initiated by adding 10 µL DPP-IV enzyme solution (10 U/L). After being incubated for 60 min at 37 °C, the reaction was terminated by adding 100 µL sodium acetate buffer (1 M, pH 4.0). The fluorescence intensity of the mixture was measured with an excitation wavelength of 350 nm and an emission wavelength of 440 nm. The control group used the HEPES buffer instead of the sample. The blank group used the HEPES buffer instead of the sample and DPP-IV enzyme solution. The DPP-IV inhibitory activity of the sample was calculated as follows:(2) DPP-IV inhibitory activity (%)=(Ac− Ab) − (As−Ab)/(Ac−Ab)×100% where As, Ac, and Ab are the intensity of the fluorescence of the sample, control, and blank groups, respectively. The half-maximal inhibitory concentration (IC50) of the sample was calculated according to the DPP-IV inhibition activity against the concentrations of the sample. In addition, the type of inhibition of the sample was obtained from the Lineweaver–Burk equation and double reciprocal plots.

In test [1] the test system is DPP-IV. The note with it: cited from earlier work; for Inhibition mode on DPP-IV: similar results reported.
Test [2] concerns DPP-IV. On the set-up: method as in PMID 6427168. Conditions: Gly-Pro-pNA as the substrate; read-out: DPP-IV inhibition IC50; cited from earlier work.
Setting [3] is: Chlorella Vulgaris protein-derived peptides.
The mark [4] stands for this setting: wheat-derived peptides, read-out: DPP-IV inhibition IC50.
Setting [5] is: camel milk protein-derived peptides.
The mark [6] stands for this setting: Ruditapes Philippinarum protein-derived peptides.

Read-outs that look alike come from different tables or passages of the source. Where a SMILES comes first, the peptide text is derived from it.

T1 sequence (P27487 whole entry): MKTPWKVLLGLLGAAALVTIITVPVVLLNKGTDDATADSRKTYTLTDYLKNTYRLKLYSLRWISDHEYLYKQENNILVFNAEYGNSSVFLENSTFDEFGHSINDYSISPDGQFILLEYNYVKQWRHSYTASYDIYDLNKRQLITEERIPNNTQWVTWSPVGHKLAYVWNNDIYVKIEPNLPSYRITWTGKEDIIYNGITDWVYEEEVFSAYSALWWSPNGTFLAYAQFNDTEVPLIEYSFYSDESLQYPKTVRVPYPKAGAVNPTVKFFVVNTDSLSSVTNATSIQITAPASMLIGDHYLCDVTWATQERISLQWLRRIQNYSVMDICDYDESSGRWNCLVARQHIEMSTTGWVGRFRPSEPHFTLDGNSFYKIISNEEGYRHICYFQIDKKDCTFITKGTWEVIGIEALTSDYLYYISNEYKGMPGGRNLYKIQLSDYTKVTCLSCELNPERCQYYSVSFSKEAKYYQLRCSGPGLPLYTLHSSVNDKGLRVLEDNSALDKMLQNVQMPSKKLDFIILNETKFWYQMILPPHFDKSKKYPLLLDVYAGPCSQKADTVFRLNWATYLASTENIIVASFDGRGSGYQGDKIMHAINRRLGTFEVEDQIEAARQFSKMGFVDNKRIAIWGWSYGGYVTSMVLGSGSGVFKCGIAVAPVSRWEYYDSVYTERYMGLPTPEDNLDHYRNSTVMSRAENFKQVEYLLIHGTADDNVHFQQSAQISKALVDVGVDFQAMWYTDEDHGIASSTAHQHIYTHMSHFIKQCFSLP

Take `CSCC[C@H](N)C(=O)N[C@@H](C)C(=O)NCC(=O)N[C@@H](CCC(N)=O)C(=O)N[C@H](C(=O)N[C@@H](Cc1ccccc1)C(=O)O)C(C)C` [MAGQVF] (H-MAGQVF-OH): at human DPP-IV, testing at 25 µM gave an inhibition of 10.4 ± 4.35%, testing at 50 µM gave an inhibition of 13 ± 2.11%, the inhibition at 100 µM was determined as 26.7 ± 3.49% and at 200 µM the inhibition was 49.4 ± 1.9%. At human DPP-IV, this molecule registered an inhibition at 400 µM of 67.5 ± 2.97% and an IC50 of 223 ± 6.16 µM.
For the molecule VPW, the “Inhibition mode on DPP-IV” value with DPP-IV [1] (setting [3]) is “mixed-type inhibitors”.
Take VAVPV: the IC50 in the test with DPP-IV [1] (setting [4]) is ~500 µM.
As for SPVVPF, the “Inhibition mode on DPP-IV” value in the test on DPP-IV [1] (setting [5]) is on record as “mixed-type inhibitors”.
As to LQAFEPLR, the IC50 with DPP-IV [1] (peptide from tryptic hydrolysate of oat globulin, read-out: DPP-IV inhibitory activity IC50) is 104 µM.
On human DPP-IV, `CC[C@H](C)[C@H](N)C(=O)N1CCC[C@H]1C(=O)N[C@@H](CCC(N)=O)C(=O)N[C@@H](Cc1c[nH]cn1)C(=O)N[C@@H](Cc1ccc(O)cc1)C(=O)O` [IPQHY] (H-IPQHY-OH) yielded an inhibition at 25 µM of 49.4 ± 1.19%, an inhibition at 50 µM of 66.9 ± 1.46%, an inhibition at 100 µM of 82.67 ± 0.74% and an inhibition at 200 µM of 91 ± 1.2%. For the same molecule, at human DPP-IV, at 400 µM the inhibition was 95.84 ± 0.52% and the IC50 came out at 25.7 ± 1.06 µM.
For `CC(C)[C@H](N)C(=O)N[C@@H](C)C(=O)N[C@H](C(=O)N[C@H](C(=O)N1CCC[C@H]1C(=O)N[C@@H](Cc1ccccc1)C(=O)O)C(C)C)C(C)C` [VAVVPF] (H-VAVVPF-OH), at human DPP-IV, testing at 25 µM gave an inhibition of 42.9 ± 2.31%, the inhibition at 50 µM stood at 61.5 ± 5.19%, the inhibition at 100 µM was 66 ± 4.07% and the inhibition at 200 µM came to 78.9 ± 1.23%. On human DPP-IV, this molecule displayed an inhibition at 400 µM of 87.99 ± 0.39% and an IC50 of 33.9 ± 4.83 µM.
For VPL, the 50% inhibitory concentration (IC50) with DPP-IV [2] is 16.8 µM.
Consider “FAGDDAPRA [Ruditapes Philippinarum protein-derived peptide]”, for which the “Inhibition mode on DPP-IV” value with DPP-IV [1] (setting [6]) is “mixed-type inhibitors”.
Take MPF: the IC50 in the test with DPP-IV [1] (setting [4]) was ~500 µM.
On human DPP-IV, `O=C(N[C@@H](CS)C(=O)N1CCC[C@H]1C(=O)O)[C@H](Cc1c[nH]cn1)NC(=O)[C@@H]1CCCN1C(=O)[C@@H]1CCCN1` [PPHCP] (H-PPHCP-OH; N-terminus and C-terminus assumed) showed an inhibition at 25 µM of 4.42 ± 3.95%, an inhibition at 50 µM of 29.9 ± 1.84%, an inhibition at 100 µM of 58.9 ± 1.1% and an inhibition at 200 µM of 81.35 ± 0.48%. This molecule also yielded an inhibition at 400 µM against human DPP-IV of 89.29 ± 0.45%.
In the case of `CC(C)[C@H](N)C(=O)N[C@@H](C)C(=O)N[C@@H](CCC(=O)O)C(=O)N[C@H](C(=O)N1CCC[C@H]1C(=O)N[C@@H](Cc1ccccc1)C(=O)O)C(C)C` [VAEVPF] (H-VAEVPF-OH), at human DPP-IV, the inhibition at 25 µM is 33 ± 12.3%, 50 µM produced 43.4 ± 2.27% inhibition, at 100 µM the inhibition was 58.2 ± 3.86% and the inhibition at 200 µM is 74.2 ± 2.32%. Also, on human DPP-IV, the inhibition at 400 µM worked out at 86.2 ± 0.96% and half-maximal inhibition (IC50) required 65.3 ± 13.1 µM.
At human DPP-IV, `CC(C)C[C@H](N)C(=O)N1CCC[C@H]1C(=O)N[C@@H](CCC(N)=O)C(=O)N[C@@H](Cc1c[nH]cn1)C(=O)N[C@@H](Cc1ccc(O)cc1)C(=O)O` [LPQHY] (H-LPQHY-OH) came in with an inhibition at 25 µM of 21.3 ± 4.86%, an inhibition at 50 µM of 37.4 ± 4.24%, an inhibition at 100 µM of 62.6 ± 1.21% and an inhibition at 200 µM of 80.4 ± 4.84%. This molecule also returned an inhibition at 400 µM against human DPP-IV of 89.87 ± 0.41%.
`CC(C)[C@H](NC(=O)[C@H](C)NC(=O)[C@H](C)N)C(=O)N1CCC[C@H]1C(=O)N[C@@H](Cc1ccccc1)C(=O)O` [AAVPF] (H-AAVPF-OH): at human DPP-IV, the inhibition at 25 µM was found to be 5.42 ± 3.61%, the inhibition at 50 µM came out at 16.7 ± 3.38%, 100 µM produced 28.9 ± 2.62% inhibition and testing at 200 µM gave an inhibition of 39.9 ± 2.79%. At human DPP-IV, the inhibition at 400 µM was 59.8 ± 2.84% and half-maximal inhibition (IC50) was put at 282 ± 27.2 µM.
For the molecule “FAGDDAPR [Ruditapes Philippinarum protein-derived peptide]”, in the test with DPP-IV [1] (setting [6]), the “Inhibition mode on DPP-IV” value was “mixed-type inhibitors”.
On to “ILDKVGINY [camel milk protein-derived peptide]”, for which the “Inhibition mode on DPP-IV” value in the test on DPP-IV [1] (setting [5]) is reported as “mixed-type inhibitors”.
Consider FLMESH, for which the “Inhibition mode on DPP-IV” value in the test with DPP-IV [1] (setting [6]) is “mixed-type inhibitors”.
On human DPP-IV, `CC(C)C[C@H](NC(=O)[C@@H]1CCCN1C(=O)[C@@H](N)C(C)C)C(=O)NCC(=O)NCC(=O)N[C@@H](Cc1ccccc1)C(=O)O` [VPLGGF] (H-VPLGGF-OH) returned an inhibition at 25 µM of 34 ± 0.76%, an inhibition at 50 µM of 55.9 ± 1.86%, an inhibition at 100 µM of 74.4 ± 0.88% and an inhibition at 200 µM of 86.7 ± 1.1%. Also, on human DPP-IV, the inhibition at 400 µM is 92.67 ± 0.36% and the IC50 worked out at 40.2 ± 0.95 µM.
On to `CC(C)[C@H](N)C(=O)N1CCC[C@H]1C(=O)N[C@@H](CCC(N)=O)C(=O)N[C@@H](Cc1c[nH]cn1)C(=O)N[C@@H](Cc1ccc(O)cc1)C(=O)O` [VPQHY] (H-VPQHY-OH), for which, at human DPP-IV, 25 µM produced 40.5 ± 4.59% inhibition, the inhibition at 50 µM was determined as 69.3 ± 4.66%, testing at 100 µM gave an inhibition of 78.8 ± 2.17% and at 200 µM the inhibition was 87.25 ± 0.25%. On human DPP-IV, this molecule had an inhibition at 400 µM of 94.3 ± 0.28% and an IC50 of 30.8 ± 1.93 µM.
For `CC(C)C[C@H](N)C(=O)N1CCC[C@H]1C(=O)N[C@@H](CCC(N)=O)C(=O)N[C@@H](Cc1ccc(O)cc1)C(=O)N[C@@H](CCC(N)=O)C(=O)N[C@@H](C)C(=O)O` [LPQYQA] (H-LPQYQA-OH), on human DPP-IV, the inhibition at 200 µM is 5.59 ± 3.1% and testing at 400 µM gave an inhibition of 29.8 ± 2.5%.
As for IPR, the “Inhibition mode on DPP-IV” value in the test on DPP-IV [1] (setting [3]) is on record as “mixed-type inhibitors”.

As a reminder, the inhibition is the change of the read-out against control, counted positive when it falls. The IC50 is the point on the concentration scale where inhibition reaches its midpoint.
